Measured values reported in the NIST ThermoML archive (doi:10.1016/j.fluid.2015.04.021).

Assay: cn = amount concentration of the nth substance listed, in mol/dm3
Conditions: 101.3 kPa, Liquid; for viscosity: Falling or rolling sphere viscometry; for mass density: Vibrating tube method

NCCCC[C@H](N)C(=O)[O-].[K+] [potassium L-lysinate] + O
Conditions | mass density [kg/m3] | viscosity [mPa·s]
298.15 K, c1 = 0.2001 | 1010.5 | 1.003
298.15 K, c1 = 0.25 | 1017.5 | 1.008
298.15 K, c1 = 0.5 | 1028.2 | 1.29
298.15 K, c1 = 0.75 | 1043.2 | 1.348
298.15 K, c1 = 1.008 | 1056 | 1.575
298.15 K, c1 = 1.529 | 1084.8 | 2.286
298.15 K, c1 = 1.79 | 1111 | 3.236
298.15 K, c1 = 2 | 1121.6 | 3.564
298.15 K, c1 = 2.5 | 1141.9 | 5.406
298.15 K, c1 = 3 | 1151 | 8.407
303.15 K, c1 = 0.2001 | 1009 | 0.8978
303.15 K, c1 = 0.25 | 1016 | 0.9023
303.15 K, c1 = 0.5 | 1027.1 | 1.158
303.15 K, c1 = 0.75 | 1041.4 | 1.2
303.15 K, c1 = 1.008 | 1054.1 | 1.397
303.15 K, c1 = 1.529 | 1082.7 | 2.007
303.15 K, c1 = 1.79 | 1108.6 | 2.805
303.15 K, c1 = 2 | 1119.1 | 3.054
303.15 K, c1 = 2.5 | 1139.1 | 4.597
303.15 K, c1 = 3 | 1148.3 | 7.027
308.15 K, c1 = 0.2001 | 1007.3 | 0.8095
308.15 K, c1 = 0.25 | 1014.2 | 0.8125
308.15 K, c1 = 0.5 | 1025.2 | 1.045
308.15 K, c1 = 0.75 | 1039.5 | 1.075
308.15 K, c1 = 1.008 | 1052 | 1.247
308.15 K, c1 = 1.529 | 1080.4 | 1.774
308.15 K, c1 = 1.79 | 1106 | 2.454
308.15 K, c1 = 2 | 1116.5 | 2.676
308.15 K, c1 = 2.5 | 1136.4 | 3.95
308.15 K, c1 = 3 | 1145.5 | 5.946
313.15 K, c1 = 0.2001 | 1005.4 | 0.7344
313.15 K, c1 = 0.25 | 1012.3 | 0.7377
313.15 K, c1 = 0.5 | 1023.2 | 0.9512
313.15 K, c1 = 0.75 | 1037.3 | 0.9697
313.15 K, c1 = 1.008 | 1049.8 | 1.121
313.15 K, c1 = 1.529 | 1077.9 | 1.581
313.15 K, c1 = 1.79 | 1103.4 | 2.173
313.15 K, c1 = 2 | 1113.8 | 2.358
313.15 K, c1 = 2.5 | 1133.5 | 3.433
313.15 K, c1 = 3 | 1142.6 | 5.094
318.15 K, c1 = 0.2001 | 1003.3 | 0.6711
318.15 K, c1 = 0.25 | 1010.2 | 0.6737
318.15 K, c1 = 0.5 | 1021 | 0.866
318.15 K, c1 = 0.75 | 1035.1 | 0.8813
318.15 K, c1 = 1.008 | 1047.5 | 1.014
318.15 K, c1 = 1.529 | 1075.4 | 1.418
318.15 K, c1 = 1.79 | 1100.8 | 1.934
318.15 K, c1 = 2 | 1111 | 2.116
318.15 K, c1 = 2.5 | 1130.6 | 3.008
318.15 K, c1 = 3 | 1139.7 | 4.407
323.15 K, c1 = 0.2001 | 1001.1 | 0.6168
323.15 K, c1 = 0.25 | 1007.9 | 0.6185
323.15 K, c1 = 0.5 | 1018.6 | 0.796
323.15 K, c1 = 0.75 | 1032.7 | 0.804
323.15 K, c1 = 1.008 | 1045 | 0.9223
323.15 K, c1 = 1.529 | 1072.8 | 1.28
323.15 K, c1 = 1.79 | 1098.1 | 1.735
323.15 K, c1 = 2 | 1108.1 | 1.916
323.15 K, c1 = 2.5 | 1127.6 | 2.659
323.15 K, c1 = 3 | 1136.7 | 3.852
328.15 K, c1 = 0.2001 | 998.6 | 0.5697
328.15 K, c1 = 0.25 | 1005.4 | 0.5705
328.15 K, c1 = 0.5 | 1016.2 | 0.7351
328.15 K, c1 = 0.75 | 1030.1 | 0.7388
328.15 K, c1 = 1.008 | 1042.4 | 0.8431
328.15 K, c1 = 1.529 | 1070.1 | 1.162
328.15 K, c1 = 1.79 | 1095.2 | 1.566
328.15 K, c1 = 2 | 1105.2 | 1.757
328.15 K, c1 = 2.5 | 1124.6 | 2.368
328.15 K, c1 = 3 | 1133.7 | 3.394
333.15 K, c1 = 0.2001 | 995.6 | 0.5292
333.15 K, c1 = 0.25 | 1002.8 | 0.5294
333.15 K, c1 = 0.5 | 1013.7 | 0.6833
333.15 K, c1 = 0.75 | 1027.5 | 0.6798
333.15 K, c1 = 1.008 | 1039.7 | 0.7748
333.15 K, c1 = 1.529 | 1067.2 | 1.061
333.15 K, c1 = 1.79 | 1092.3 | 1.421
333.15 K, c1 = 2 | 1102.2 | 1.621
333.15 K, c1 = 2.5 | 1121.5 | 2.136
333.15 K, c1 = 3 | 1130.6 | 3.012
338.15 K, c1 = 0.2001 | 993.4 | 0.4937
338.15 K, c1 = 0.25 | 1002.8 | 0.4939
338.15 K, c1 = 0.5 | 1011 | 0.6409
338.15 K, c1 = 0.75 | 1024.7 | 0.629
338.15 K, c1 = 1.008 | 1036.9 | 0.7155
338.15 K, c1 = 1.529 | 1064.3 | 0.9729
338.15 K, c1 = 1.79 | 1089.3 | 1.296
338.15 K, c1 = 2 | 1099.1 | 1.501
338.15 K, c1 = 2.5 | 1118.3 | 1.927
338.15 K, c1 = 3 | 1127.5 | 2.693
343.15 K, c1 = 0.2001 | 990.6 | 0.4633
343.15 K, c1 = 0.25 | 997.3 | 0.463
343.15 K, c1 = 0.5 | 1008.1 | 0.6042
343.15 K, c1 = 0.75 | 1021.8 | 0.5855
343.15 K, c1 = 1.008 | 1033.9 | 0.6637
343.15 K, c1 = 1.529 | 1061.3 | 0.8961
343.15 K, c1 = 1.79 | 1086.3 | 1.188
343.15 K, c1 = 2 | 1096 | 1.435
343.15 K, c1 = 2.5 | 1115 | 1.748
343.15 K, c1 = 3 | 1124.3 | 2.423
348.15 K, c1 = 0.2001 | 987.7 | 0.4359
348.15 K, c1 = 0.25 | 994.3 | 0.4358
348.15 K, c1 = 0.5 | 1005.2 | 0.5715
348.15 K, c1 = 0.75 | 1018.7 | 0.5472
348.15 K, c1 = 1.008 | 1030.9 | 0.6181
348.15 K, c1 = 1.529 | 1058.2 | 0.8306
348.15 K, c1 = 1.79 | 1083.2 | 1.095
348.15 K, c1 = 2 | 1092.7 | 1.346
348.15 K, c1 = 2.5 | 1111.8 | 1.594
348.15 K, c1 = 3 | 1121.1 | 2.208
